Tests used:
[1] = test system: HIV clinical isolate; experiment: HIV replication in PHA-stimulated lymphocytes (P-24 antigen Elisa); assay type: cell-based; parameters: P-24 Elisa: unit not given here; conditions: for P-24 Elisa: 7 days
Protocol: PHA-stimulated lymphocytes were inoculated with a clinical isolate of HIV at a multiplicity of infection of […]. Fresh lymphocytes were obtained and stimulated with PHA and IL-2. After 3 days, 1000 TCID of virus-(HIV clinical isolate) were applied for 1 hour and there was a M.O.I. of 1:10. The cells were washed and in a dose response fashion, and drug in media was applied. After 3 days, the supernatant was exchanged with ½ volume of fresh media and ½ the volume of fresh drug. After 7 days, detergent was added, and HIV P-24 Antigen was determined by Elisa. Viability of the lymphocytes was evaluated along with appearance of the viral gene product p24.

[2] = Arterial pressure in catheterized rat; assay type: in vivo
Protocol: A 200-g rat was catheterized in the right carotid artery, and the compound was introduced over a ten-second period to a total dosage of 5 mg/kg. Within 30 seconds, the mean arterial pressure had fallen from about 100 mm Hg to about 70 mm Hg, with a marked reduction in pulse pressure from about 40 mm to about 10 mm. […] If cardiac output was basically unaffected, reduction in blood pressure would have resulted principally from a reduction in system resistance.
At that time, 40 μg of noradrenaline was introduced.

[3] = test system: human umbilical venous endothelial cells; experiment: LPS/TNF-α-induced neutrophil adherence to endothelial cells; assay type: cell-based; conditions: squalamine 10 μg, 1.0 μg or 0.1 μg; three subjects
Protocol: To determine if squalamine inhibited this particular endothelial cell function, standard adhesion assays were performed as outlined in Gamble et al., J. Imm. Methods 109, 1988, 175-184. […] In these experiments, approximately 2×10^5 human umbilical venous cells (passage 2-6) were plated per well. The cells were grown in serum-free media overnight. For induction, either TNF-α (40 ng/ml) was added to endothelial cells for 6 hours prior to adding neutrophils or LPS (100 ng/ml) was added for 4-6 hours. […] After activation of the endothelial cells, approximately 50×10^6 neutrophils were added per well. The plates were gently rocked for 30 minutes at room temperature, followed by removal of the media and washing in serum-free media three times and then photographing of each well. Experiments to test the effects of squalamine were performed by adding squalamine at 10 μg, 1.0 μg, or 0.1 μg at the time of adding LPS or TNF-α. A second repeat dose of squalamine was added at the time of adding neutrophils. A monoclonal Ab to ICAM-1 was a positive control.

Structure (SMILES) | P-24 Elisa ([1]; Conc. 0.5 μM) | P-24 Elisa ([1]; Conc. 1 μM) | P-24 Elisa ([1]; Conc. 5 μM) | P-24 Elisa ([1]; Conc. 10 μM) | P-24 Elisa ([1]; Conc. 20 μM) | inhibition at 10 µg/mL ([1]; Human immunodeficiency virus 1, Lymphocyte, 10 μg/ml, read-out: Inhibition of antigen synthesis) [%] | Heart rate ([2]; 5 mg/kg) | Time to fall of arterial pressure ([2]; 5 mg/kg) [s] | Mean arterial pressure after dosing ([2]; 5 mg/kg over ten seconds, fallen from about 100 mm Hg) | Pulse pressure after dosing ([2]; 5 mg/kg, reduced from about 40 mm) | Inhibition of neutrophil adherence [3]
CC(CC[C@@H](OS(=O)(=O)O)C(C)C)[C@H]1CCC2C3C(CC[C@@]21C)[C@@]1(C)CC[C@H](NCCCNCCCCNCCCN)C[C@@H]1C[C@H]3O (some centres unmarked) [Compound 1436] | 40561 | 7464 | 3426 | 421 | 9 | 97 | no significant increase in heart rate | ≤ 30 | about 70 mm Hg | about 10 mm | 
CC(CC[C@@H](OS(=O)(=O)O)C(C)C)[C@H]1CCC2C3C(CC[C@@]21C)[C@@]1(C)CC[C@H](NCCCNCCCCN)C[C@@H]1C[C@H]3O (some centres unmarked) [squalamine] |  |  |  |  |  |  |  |  |  |  | no inhibition
